Assay results from ChEMBL document CHEMBL5120920, “A Mitochondria-Targeted Phenylbutyric Acid Prodrug Confers Drastically Improved Anticancer Activities” (J Med Chem, 2022).
pIC50: −log10 of the molar value. Active and inactive are the calls of the source. The rule behind the calls is not given here.

Tests used:
A-375 [1] = experiment: Cytotoxicity against human A-375 cells assessed as reduction in cell vaibility measured at 72 hrs in presence of BNPP by MTT assay; type: functional, cell-based; conditions: A-375, 72 h
[2] = Toxicity in BALB/c mouse assessed as effect on body weight at 125 to 200 mg/kg, iv administered for 7 days and measured once per 2 days; type: organism-based; conditions: in vivo, 168 h, dose 125-200 mg/kg, time 7 day
A-375 [3] = experiment: Induction of apoptosis in human A-375 cells assessed as apoptotic cells at 10 uM measured after 48 hrs by Annexin V FITC/PI staining based flow cytometry analysis relative to control; type: functional
[4] = Stability of the compound in Tris-HCL buffer at pH 7.4 measured for 24 hrs by RP-HPLC-UV analysis; type: physicochemical; conditions: pH 7.4, 24 h
HaCaT = experiment: Induction of mitochondrial membrane hyperpolarization in human HaCaT cells assessed as JC-1 level at 2.5 to 10 uM incubated for 4 hrs by JC-1 staining based flow cytometry analysis relative to control; type: functional; conditions: dose 2.5-10 µM
A-375 [5] = experiment: Induction of mitochondrial membrane hyperpolarization in human A-375 cells assessed as JC-1 level at 2.5 to 10 uM incubated for 4 hrs by JC-1 staining based flow cytometry analysis relative to control; type: functional; conditions: dose 2.5-10 µM
[6] = Metabolic stability in Sprague-Dawley rat plasma assessed as elimination half life by LC-MS/MS analysis; type: ADME, cell-free; conditions: read-out: beta t1/2
A-375 [7] = experiment: Inhibition of glycolysis in human A-375 cells assessed as reduction in extracellular acidification rate at 0.25 to 5 uM measured after 4 hrs; type: functional, cell-based; conditions: dose 0.25-5 µM
A-375 [8] = experiment: Cytotoxicity against human A-375 cells assessed as reduction in cell vaibility measured at 24 hrs in absence of BNPP by MTT assay; type: functional, cell-based; conditions: A-375, 24 h
[9] = Drug uptake in human A-375 cells mitochondria assessed as fold increase at 10 uM measured after 4 hrs relative to PBA; type: ADME; conditions: a-375, 4 h
A-375 [10] = experiment: Induction of cell cycle arrest in human A-375 cells assessed as accumulation at S phase at 5 uM incubated for 24 hrs by PI staining based flow cytometry analysis (reference value: 24.01 %); type: functional
[11] = target: Histone deacetylase (Homo sapiens) (UniProt Q13547+O15379+Q9UBN7+Q92769+Q9UQL6+Q8WUI4+Q9BY41+Q96DB2+P56524+Q9UKV0+Q969S8); experiment: Inhibition of HDAC in human A-375 cells assessed as upregulation of histone-H3 acetylation at 5 to 20 uM measured after 24 hrs; type: cell-based; conditions: dose 5-20 µM
A-375 [12] = experiment: Induction of cell cycle arrest in human A-375 cells assessed as accumulation at G2 phase at 2.5 uM incubated for 24 hrs by PI staining based flow cytometry analysis (reference value: 7.92 %); type: functional
[13] = target: Pyruvate dehydrogenase kinase (Homo sapiens) (UniProt Q15119+Q15120+Q16654+Q15118); experiment: Inhibition of PDK in human A-375 cells assessed as reduction in PDH phosphorylation at ser293 residue at 5 to 20 uM after 24 to 48 hrs; type: cell-based; conditions: dose 5-20 µM, time 24-48 hrs
A-375 [14] = experiment: Antitumor activity against human A-375 cells xenografted in nude mouse assessed as tumor growth inhibition at 10 to 40 mg/kg, ip and measured once every two days for 14 days; type: functional, organism-based; conditions: dose 10-40 mg/kg, time 14.0 day
MCF7 = experiment: Antiproliferative activity against human MCF7 cells assessed as inhibition of cell viability incubated for 72 hrs by MTT assay; type: functional, cell-based; conditions: MCF7, 72 h
A-375 [15] = experiment: Induction of mitochondrial membrane depolarization in human A-375 cells assessed as increase in JC-1 monomer at 10 uM incubated for 4 hrs by JC-1 staining based flow cytometry analysis; type: functional, cell-based
MDA-MB-231 [16] = experiment: Induction of mitochondrial membrane hyperpolarization in human MDA-MB-231 cells assessed as JC-1 level at 2.5 to 10 uM incubated for 4 hrs by JC-1 staining based flow cytometry analysis relative to control; type: functional; conditions: dose 2.5-10 µM
A-375 [17] = experiment: Antitumor activity against human A-375 cells xenografted in nude mouse assessed as shrinkage of tumor tissue at 10 to 40 mg/kg, ip measured once every two days for 14 days; type: functional, organism-based; conditions: dose 10-40 mg/kg, time 14.0 day
[18] = Toxicity in BALB/c mouse assessed as change in body weight at 100 mg/kg, iv administered for 7 days and measured once per 2 days; type: organism-based; conditions: in vivo, 168 h, time 7 day
[19] = Toxicity in BALB/c mouse assessed as change in body weight at 40 mg/kg, iv measured once every two days for 7 days; type: organism-based; conditions: in vivo, 168 h, time 7 day
A-375 [20] = experiment: Antiproliferative activity against human A-375 cells assessed as inhibition of cell viability incubated for 72 hrs by MTT assay; type: functional, cell-based; conditions: A-375, 72 h
A-375 [21] = experiment: Cytotoxicity against human A-375 cells assessed as reduction in cell vaibility measured at 48 hrs in presence of BNPP by MTT assay; type: functional, cell-based; conditions: A-375, 48 h
A-375 [22] = experiment: Induction of mitochondrial membrane depolarization in human A-375 cells assessed as increase in JC-1 monomer incubated for 4 hrs by JC-1 staining based flow cytometry analysis; type: functional, cell-based; conditions: dose 2.5-10 µM, DDE = dose-dependent effect
A-375 [23] = experiment: Induction of apoptosis in human A-375 cells assessed as apoptotic cells at 10 uM measured at 24 hrs by Annexin V FITC/PI staining based flow cytometry analysis relative to control; type: functional
[24] = Stability of the compound assessed as Carboxylesterase (unknown origin) mediated compound hydrolysis measured upto 150 mins by RP-HPLC-UV analysis; type: ADME; conditions: human, 2.5 h
[25] = Toxicity in nude mouse xenografted with human A-375 cells assessed as body weight loss at 10 to 40 mg/kg, ip measured once every two days for 14 days; type: organism-based; conditions: in vivo, 336 h, dose 10-40 mg/kg, time 14 day
MDA-MB-231 [26] = experiment: Antiproliferative activity against human MDA-MB-231 cells assessed as inhibition of cell viability incubated for 72 hrs by MTT assay; type: functional, cell-based; conditions: MDA-MB-231, 72 h
A-375 [27] = experiment: Cytotoxicity against human A-375 cells assessed as reduction in cell vaibility measured at 24 hrs in presence of BNPP by MTT assay; type: functional, cell-based; conditions: A-375, 24 h
A-375 [28] = experiment: Induction of mitochondrial damage in human A-375 cells assessed as decrease in oxygen consumption rate at 5 uM measured after 4 hrs; type: functional, cell-based
A-375 [29] = experiment: Induction of cell cycle arrest in human A-375 cells assessed as accumulation at G1 phase at 5 uM incubated for 24 hrs by PI staining based flow cytometry analysis (reference value: 68.07 %); type: functional
A-375 [30] = experiment: Induction of cell cycle arrest in human A-375 cells assessed as accumulation at S phase at 2.5 uM incubated for 24 hrs by PI staining based flow cytometry analysis (reference value: 24.01 %); type: functional
[31] = Toxicity in BALB/c mouse assessed as histopathological changes in heart at 50 to 100 mg/kg, iv measured after 7 days by H and E staining based assay; type: organism-based; conditions: in vivo, 168 h, dose 50-100 mg/kg, time 7 day
A549 = experiment: Antiproliferative activity against human A549 cells assessed as inhibition of cell viability incubated for 72 hrs by MTT assay; type: functional, cell-based; conditions: A549, 72 h

SMILES: O=C(CCCCCCCCC[P+](c1ccc(C(F)(F)F)cc1)(c1ccc(C(F)(F)F)cc1)c1ccc(C(F)(F)F)cc1)NC(COC(=O)CCCc1ccccc1)(COC(=O)CCCc1ccccc1)COC(=O)CCCc1ccccc1.[Br-]
- pIC50 (A-375 [1]): 4.85
- Activity [2]: Non-Toxic
- Activity (A-375 [3]): 50%
- Stability [4]: Stable
- Activity (HaCaT): 12.67%
- Activity (A-375 [5]): 2.22%
- half-life [6]: 257 min
- inhibition (A-375 [7]): Active
- pIC50 (A-375 [8]): 5.22
- Drug uptake [9]: Active
- Activity (A-375 [10]): 15.46%
- inhibition [11]: Active
- Activity (A-375 [12]): 8.58%
- inhibition [13]: Active
- Activity (A-375 [14]): Active
- pIC50 (MCF7): 5.22
- Activity (A-375 [15]): Active
- Activity (MDA-MB-231 [16]): 3.27%
- Activity (A-375 [17]): Active
- Activity [18]: Non-Toxic
- Activity [19]: Non-Toxic
- pIC50 (A-375 [20]): 5.65
- pIC50 (A-375 [21]): 4.72
- Activity (A-375 [22]): Dde
- Activity (A-375 [23]): 7%
- Stability [24]: Unstable
- Activity [25]: Non-Toxic
- pIC50 (MDA-MB-231 [26]): 5.43
- pIC50 (A-375 [27]): 4.55
- Activity (A-375 [28]): Active
- Activity (A-375 [29]): 75.69%
- Activity (A-375 [30]): 16.71%
- Activity [31]: Non-Toxic
- pIC50 (A549): 5.33
